{"source": "patent US5942535A", "about": "“[a]-Annelated pyrrole derivatives and pharmaceutical use thereof” (Merckle GmbH, priority 1994, dated 1999)", "key": {"5-lipoxygenase (LO)": {"molecular_target": "T1, 5-lipoxygenase (LO) (Bos taurus, UniProt F1MQ78)", "T1 construct": "endogenous in cells", "T1 sequence (F1MQ78 1-674)": "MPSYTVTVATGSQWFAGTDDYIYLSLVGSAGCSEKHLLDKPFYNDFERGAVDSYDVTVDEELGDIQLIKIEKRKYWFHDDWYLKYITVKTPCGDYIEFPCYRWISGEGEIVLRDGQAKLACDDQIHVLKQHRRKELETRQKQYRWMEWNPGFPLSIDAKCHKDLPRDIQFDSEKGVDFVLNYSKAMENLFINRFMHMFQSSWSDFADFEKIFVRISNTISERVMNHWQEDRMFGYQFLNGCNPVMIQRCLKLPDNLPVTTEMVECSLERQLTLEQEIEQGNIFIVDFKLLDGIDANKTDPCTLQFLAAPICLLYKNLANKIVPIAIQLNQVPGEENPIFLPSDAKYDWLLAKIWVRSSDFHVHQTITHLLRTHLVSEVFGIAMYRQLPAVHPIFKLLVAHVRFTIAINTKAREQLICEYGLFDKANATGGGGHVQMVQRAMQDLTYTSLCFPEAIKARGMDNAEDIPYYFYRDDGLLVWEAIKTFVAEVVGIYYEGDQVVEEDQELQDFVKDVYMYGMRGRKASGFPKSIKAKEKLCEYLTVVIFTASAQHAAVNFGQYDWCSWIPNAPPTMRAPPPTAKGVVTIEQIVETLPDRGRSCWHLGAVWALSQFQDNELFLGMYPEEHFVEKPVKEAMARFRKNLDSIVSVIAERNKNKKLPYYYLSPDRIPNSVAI", "assay": "Inhibition of the enzyme 5-lipoxygenase (LO)", "format": "biochemical", "details": "first figure of cell 'LO/CO'; decimal comma; concentration unit inferred; read-out: 7) IC50 LO", "source_text": "(§1) 7) IC50 /LO/CO: Inhibition of the enzyme cyclooxygenase (CO) and 5-lipoxygenase (LO), Dannhardt et al., J. Pharm. Pharmacol. 1992, 44:419-424."}, "cyclooxygenase (CO)": {"molecular_target": "T2, cyclooxygenase (CO) (Bos taurus, UniProt O62664)", "T2 construct": "endogenous in cells", "T2 sequence (O62664 25-600)": "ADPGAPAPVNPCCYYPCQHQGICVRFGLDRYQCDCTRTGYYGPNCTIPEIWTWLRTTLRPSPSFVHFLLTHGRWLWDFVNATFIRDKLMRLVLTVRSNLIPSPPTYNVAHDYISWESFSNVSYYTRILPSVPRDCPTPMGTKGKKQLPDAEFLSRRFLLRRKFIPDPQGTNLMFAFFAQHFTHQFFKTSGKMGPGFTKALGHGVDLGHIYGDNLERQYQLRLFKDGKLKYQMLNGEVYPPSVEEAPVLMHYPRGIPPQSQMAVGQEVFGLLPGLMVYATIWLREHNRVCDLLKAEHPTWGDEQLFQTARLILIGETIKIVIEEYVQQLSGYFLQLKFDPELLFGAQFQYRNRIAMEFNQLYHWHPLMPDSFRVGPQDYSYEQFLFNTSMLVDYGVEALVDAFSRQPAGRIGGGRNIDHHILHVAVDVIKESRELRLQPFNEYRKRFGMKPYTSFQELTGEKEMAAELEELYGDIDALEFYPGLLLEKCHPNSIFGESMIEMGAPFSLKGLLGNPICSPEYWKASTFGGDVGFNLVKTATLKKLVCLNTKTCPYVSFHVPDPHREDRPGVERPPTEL", "assay": "Inhibition of the enzyme cyclooxygenase (CO)", "format": "biochemical", "details": "second figure of cell 'LO/CO'; decimal comma; concentration unit inferred; read-out: 7) IC50 CO", "source_text": "as §1"}}}
{"smiles": "CC1(C)Cc2c(-c3ccccc3)c(-c3ccc(Cl)cc3)c(CC(=O)O)n2C1", "note": "[6-(4-chlorophenyl)-2,2-dimethyl-7-phenyl-2,3-dihydro-1H-pyrrolizin-5-yl acetic acid]", "values": [{"measurement": "degraded at 24 h", "setting": "physchem; aqueous solution", "result": "~2", "unit": "%"}, {"measurement": "half-life", "setting": "physchem; chloroform", "result": "~1", "unit": "h"}]}
{"smiles": "CC1(C)Cc2c(-c3ccccc3)c(-c3ccc(Cl)cc3)c(CC(=O)NS(C)(=O)=O)n2C1", "note": "[Example 4]", "values": [{"measurement": "IC50", "setting": "5-lipoxygenase (LO)", "result": 230, "unit": "nM"}, {"measurement": "IC50", "setting": "cyclooxygenase (CO)", "result": 150, "unit": "nM"}]}
